Measured values taken from patent publication US10426841B2, “Combination of drugs with protein-binding prodrugs” (VERGELL MEDICAL S.A., priority 2010, dated 2019).

Assays:
[1] = system: human ovarian cancer xenografts (A2780); assay: Antitumor efficacy and tolerability in the ovarian carcinoma A2780 xenograft model; conditions: for toxic death: 8 mice per group; for RTV day 30 (relative tumor volume): * significant to Doxorubicin; for antitumor efficacy (in words): doxorubicin 2×8 mg/kg up to day 30
Procedure: In order to evaluate the in vivo antitumor efficacy of a combination of doxorubicin with DOXO-EMCH in tumor-bearing mice, a direct comparison was made with a group treated with doxorubicin (2×8 mg/kg body weight) or DOXO-EMCH (3×24 mg/kg body weight doxorubicin equivalents) at their respective MTDs. For the combination, a lower dose of doxorubicin (3×4 mg/kg body weight) was combined with a lower dose of DOXO-EMCH (3×12 mg/kg body weight doxorubicin equivalents) wherein the DOXO-EMCH was administered 6 h prior to doxorubicin on the respective days of administration (cf. Table 1).
Experimental Procedure. […] For in vivo testing, female NMRI: nu/nu mice (Taconic, Denmark) were used. The mice were held in individually ventilaged cages (IVC) under sterile and standardized environmental conditions (25±2° C. room temperature, 50±10% relative humidity, 12 hour light-dark-rhythm). They received autoclaved food and bedding (ssniff, Soest, Germany) and acidified (pH 4.0) drinking water ad libitum. A2780 tumor fragments were transplanted subcutaneously (s.c.) into the left flank region of anaesthetized mice (40 mg/kg i.p. Radenarkon, Asta Medica, Frankfurt, Germany) on day 0. Mice were randomly distributed to the experimental groups (8 mice per group). When the tumors were grown to a palpable size, treatment was initiated. Mice were treated intravenously (i.v.) with either glucose phosphate buffer (10 mM sodium phosphate, 5% D-(+)-glucose, pH 5.8), doxorubicin (2×8 mg/kg body weight), or DOXO-EMCH (3×24 mg/kg body weight doxorubicin equivalents), or a combination of DOXO-EMCH (3×12 mg/kg body weight doxorubicin equivalents) and doxorubicin (3×4 mg/kg body weight) with a 6 hour interval on the day of administration. DOXO-EMCH was dissolved in 10 mM sodium phosphate, 5% D-(+)-glucose, pH 5.8. The compounds were injected intravenously at weekly intervals on days 6 and 13 and on days 6, 13 and 20 for the remaining compounds. The injection volume was 0.2 ml/20 g body weight. Tumor size was measured twice weekly with a caliper-like instrument in two dimensions. Individual tumor volumes (V) were calculated by the formula V=(length×[width]2)/2 and related to the values on the first day of treatment (relative tumor volume, RTV). Statistical analysis was performed with the U-test (Mann and Whitney) with p<0.05. The body weight of mice was determined every 3 to 4 days.

[2] = Maximum tolerated dose in nude mice; type: in vivo; conditions: 2×12 mg/kg body weight
[3] = i.v., doxorubicin 8 mg/kg days 6, 13, DOXO-EMCH 24 mg/kg days 6, 13, 20, combination 4 + 12 mg/kg days 6, 13, 20
[4] = DOXO-EMCH 3×24 mg/kg, combination DOXO-EMCH 3×12 + doxorubicin 3×4 mg/kg

SMILES | toxic death [1, 3] | body weight loss ([1]; DOXO-EMCH 3×24 mg/kg, after day 37, some animals died or were killed) | duration of tumor remissions [1, 4] | RTV day 20 (relative tumor volume) [1, 3] | RTV day 30 (relative tumor volume) [1, 3] | BWC [%] (body weight change) ([1]; day of value in brackets in the cell, i.v., doxorubicin 8 mg/kg days 6, 13, DOXO-EMCH 24 mg/kg days 6, 13, 20, combination 4 + 12 mg/kg days 6, 13, 20) | antitumor efficacy (in words) [1, 4] | toxicity at doses higher than MTD [2]
COc1cccc2c1C(=O)c1c(O)c3c(c(O)c1C2=O)CC(O)(C(CO)=NNC(=O)CCCCCN1C(=O)C=CC1=O)CC3OC1CC(N)C(O)C(C)O1 (stereo not drawn) [DOXO-EMCH, 6-maleimidocaproyl(hydrazone) derivative of doxorubicin] | 0 | over 30% | up to 37 days | 0.2 | 0.1* | −31 (d37) % | pronounced antitumor effect | –
COc1cccc2c1C(=O)c1c(O)c3c(c(O)c1C2=O)C[C@@](O)(C(=O)CO)C[C@@H]3O[C@H]1C[C@H](N)[C@H](O)[C@H](C)O1 [Doxorubicin, doxorubicin, reference compound] | 0 | – | – | 7.4 | 23.9 | – | moderate antitumor efficacy | unacceptable toxicity and mortality
